According to patent US6987103B2, “Treatment of chronic myelogenous leukmia, resistant or intolerant to ST1571, involving homoharringtonine alone or combined with other agents” (Stragen Pharma S.A., priority 2001, dated 2006):

Experiments:
[1] = test system: chronic phase of Philadelphia positive chronic myelogenous leukemia; assay: Case of patient #15 successively resistant to five drugs including STI571, treated by homoharringtonine; type: in vivo, human
Description: After a debulking treatment with hydroxyurea, a combination of interferon alpha (5 MU/m^2/day) and low-dose cytarabine was administered according to a standard regimen (subcutaneous mode of administration, 15 mg/m^2/day, daily, permanently). Then, to maintain hematologic response at the initial level, cytarabine regimen was increased to intermediate dose (200 mg/m^2/day). […] Finally, a treatment based on homoharringtonine alone was initiated. At the time of initiation of homoharringtonine treatment, WBC count was 31,000/μL: 2.5 mg/m^2/day, 14 days.

[2] = test system: K562-r; assay: MTS cell proliferation assay, median effect combination analysis with STI571; type: cell-based, human; details: K562-r (STI571-resistant); STI571:HHT = 27.3:1
Source text: (§1) The combination ratios are selected, where possible, such that both drugs are in a range relevant to their achievable serum concentrations. STI571-sensitive and resistant cells are exposed to doubling dilutions of homoharringtonine over a wide range (Table 1). […] The effects of homoharringtonine treatments are plotted and analyzed to produce computed estimations of the relative responses to either homoharringtonine alone or in combination. In this way it is possible to detect synergistic, additive or antagonistic effects. Duplicate or triplicate independent experiments are set up for each cell line/drug combination. In each case the analysis generates plots of CI (Combination Index) versus effect. […] These values are most relevant at high effect levels, as this is the desired physiological level of effect. Subsequently the CI curves can be represented as the average CI values at effects 0.5, 0.75 and 0.9 (IC50, IC75 and IC90 respectively). Cell proliferation is monitored with the CellTiter 96® AQucous One Solution Cell Proliferation Assay (Promega, UK). […] Proliferation is assessed on aliquots taken daily from days 1 to 4 in order to establish the most representative time-point. Replicate experiments are thereafter set up by plating the cells directly into 96-well plates and staining with MTS on day 3. A minimum of 95% viability as assessed by Trypan blue staining is required for the initiation of any experiment. […] Blank wells contained 100 μL RF10. All samples are plated in quadruplicate. […] On day 3, 20 μL of MTS reagent is added to each well, and the plate is re-incubated for a further 3–4 hours for stain development. At the end of this period, the plates are gently agitated and the absorbance of each well at 490 nm is recorded on an automatic microplate reader (MRX, Dynatech, Billingshurst, UK). Averaged blank values (no cells, no drug) are subtracted from sample values, and these corrected A490 values are calculated as percentages of the control cultures grown in the absence of drug. Error bars indicate the range defined in duplicate experiments, and significant differences considered as those which fell outside the region of overlap in the ranges of the means. Such an approach is supported by the non-parametric Mann-Whitney U test.

[3] = test system: K562-s; assay: as above; type: cell-based, human; details: STI571:HHT = 27.3:1
Source text: as §1

[4] = test system: LAMA84-r; assay: as above; type: cell-based, human; details: LAMA84-r (STI571-resistant); STI571:HHT = 27.3:1
Source text: as §1

[5] = test system: LAMA84-s; assay: as above; type: cell-based, human; details: STI571:HHT = 27.3:1
Source text: as §1

[6] = test system: accelerated phase chronic myelogenous leukemia; details: human, in vivo
Description: Description. […] The patient was resistant to interferon alpha, BCNU, HU at the time of initiation of induction with homoharringtonine (2.5 mg/m^2/day, 15 days). After white blood cell and platelet counts recovery, ten further 7-day cycles of homoharringtonine combined with cytarabine (Ara-C) 10 mg (flat dose) daily, were administered. An average of 7 days of daily Ara-C per 28-day cycle was used (see treatment plan of FIG. 1).

[7] = in vivo; cited from earlier work
[8] = test system: Chronic myelogenous leukemia (CML); details: in vivo; cited from earlier work

## COC(=O)[C@H](CCSC)NC(=O)c1ccc(NC[C@@H](N)CS)cc1-c1ccccc1 [farnesyl transferase inhibitor]
[1]; patient #15, after first relapse under interferon alpha
  peripheral blood response: transient peripheral blood response

## COC(=O)C[C@](O)(CCCC(C)(C)O)C(=O)O[C@@H]1C(OC)=C[C@]23CCCN2CCc2cc4c(cc2[C@H]13)OCO4 [homoharringtonine]
[2]
  Average CI (Combination index) at FA values of 0.5, 0.75 and 0.9: 0.6
[3]
  Average CI (Combination index) at FA values of 0.5, 0.75 and 0.9: 1.1
[4]
  Average CI (Combination index) at FA values of 0.5, 0.75 and 0.9: 0.6
[5]
  Average CI (Combination index) at FA values of 0.5, 0.75 and 0.9: 1.2
[6]
  adverse events attributable to the agent: no non-hematologic adverse events attributable to homoharringtonine
[1]; patient #15, day 17, HHT 2.5 mg/m^2/day, 14 days, 31,000/μL at initiation
  WBC count: 2,400 /μL
[7]
  Drug concentration in serum: 36.6 nM

## Nc1ccn([C@@H]2O[C@H](CO)[C@@H](O)[C@@H]2O)c(=O)n1 [cytarabine]
[6]
  adverse events attributable to the agent: Mouth ulceration and alveolar hemorrhage

## interferon alpha
[8]
  median survival: about 7 years
